Experimental data: patent US20170224819A1, “Therapeutic Combinations of a BTK Inhibitor, a PI3K Inhibitor, a JAK-2 Inhibitor, and/or a CDK 4/6 Inhibitor” (Acerta Pharma B.V., priority 2014, published 2017)
“Also recorded” adds a separate entry of the source.

Key:
[1] = system: human platelet-mediated thrombosis; test: In vivo human thrombus formation in the VWF HA1 mice model (laser-induced injury); details: pretreated human platelets
Experimental: Constitutive or aberrant activation of the BCR signaling cascade has been implicated in the propagation and maintenance of a variety of B cell malignancies. […] J. Haematol. […] In fact, both Tec and BTK play an important role in the regulation of phospholipase Cγ2 (PLCγ2) downstream of the collagen receptor glycoprotein VI (GPVI) in human platelets. […] Biotechnol.
Injury to the vessel wall of arterioles ([…] diameter) was performed using a pulsed nitrogen dye laser (440 nm, Photonic Instruments) applied through a 20× water-immersion Olympus objective (LUMPlanFl, 0.5 numerical aperature (NA)) of a Zeiss Axiotech vario microscope. […] The extent of thrombus formation was assessed for 2 minutes after injury and the area (μm^2) of coverage determined (Image IQ, Andor Technology).
The BTK inhibitor-treated human platelets were fluorescently labeled and infused continuously through a catheter inserted into the femoral artery.

[2] = system: B cell receptor signals (CD69); test: Whole blood B cell receptor signaling, anti-IgD stimulated CD69 on CD19+ B cells; format: cell-based; details: whole blood of four healthy donors, 2 hours incubation, anti-human IgD 18 hours
Experimental: Blood from four healthy donors was incubated for 2 hours with the compounds shown over a concentration range, and then stimulated with anti-human IgD [10 μg/mL] for 18 hours. The mean fluorescent intensity (MFI) of CD69 (and CD86, data not shown) on gated CD19+ B cells was measured by flow cytometry.

[3] = system: GPVI platelet aggregation; test: GPVI (convulxin-induced) platelet aggregation; format: cell-based; details: human platelets
Experimental: GPVI platelet aggregation was measured for Formula (XVIII) and Formula XX-A (ibrutinib). Blood was obtained from untreated humans, and platelets were purified from […] by centrifugation. Cells were resuspended to a final concentration of 350,000/μL in buffer containing 145 mmol/L NaCl, 10 mmol/L HEPES, 0.5 mmol/L Na2HPO4, 5 mmol/L KCl, 2 mmol/L MgCl2, 1 mmol/L CaCl2, and 0.1% glucose, at pH 7.4. Stock solutions of […] were prepared on the day of experimentation and added to platelet suspensions 5 minutes (37° C., 1200 rpm) before the induction of aggregation. Aggregation was assessed with a Chronolog Lumi-Aggregometer (model 540 VS; Chronolog, Havertown, Pa.) and permitted to proceed for 6 minutes after the addition of agonist. The results are reported as maximum percent change in light transmittance from baseline with platelet buffer used as a reference.
In FIG. 126, the results of CVX-induced (250 ng/mL) human platelet aggregation results before and 15 minutes after administration of the BTK inhibitors to 6 healthy individuals are shown.

Raji cells = test: Antibody-dependent NK cell-mediated cytotoxicity, chromium release assay; format: cell-based; details: 1 μM; chromium-labeled Raji cells, 4 hours, variable rituximab concentrations, effector:target ratio 25:1; FIG. 134

Row | Compound | Effect on human platelet-mediated thrombus formation [1] | EC50 [2] | GPVI platelet aggregation [3] | antibody-dependent NK cell-mediated cytotoxicity (percent lysis of tumor cells) (Raji cells)
1 | C=CC(=O)Nc1cccc(Nc2nc(Nc3ccc(OCCOC)cc3)ncc2F)c1 [CC-292, N-(3-((5-fluoro-2-((4-(2-methoxyethoxy)phenyl)amino)pyrimidin-4-yl)amino)phenyl)acrylamide, reference compound] | interfere with thrombus formation; also recorded: showed an effect similar to Formula XX-A (ibrutinib) | 121 nM | – | –
2 | C=CC(=O)N1CCC[C@@H](n2nc(-c3ccc(Oc4ccccc4)cc3)c3c(N)ncnc32)C1 [ibrutinib, reference compound] | – | – | significantly inhibits GPVI platelet aggregation | antagonizes
